Experimental data published in publication PMC8854719, “Phase 1A/1B dose-escalation and -expansion study to evaluate the safety, pharmacokinetics, food effects and antitumor activity of pamiparib in advanced solid tumours” (British Journal of Cancer, 2021).

System: advanced solid tumours
Assay: Tumour response and PFS per RECIST v1.1, overall efficacy-evaluable population
Format: in vivo, human
Method: Pamiparib in plasma was measured using a validated liquid chromatography-tandem–mass spectrometry assay with a lower limit of quantification of 1.0 ng/mL. The collection schedule for blood samples used to assess the PK profile is presented in the Supplemental Appendix. Summary PK parameters, including area under the concentration-time curve from time 0 to 9 h (AUC0-9) or infinity (AUC0-inf), maximal plasma concentration (Cmax) and time to maximal plasma concentration (Tmax), were estimated. The pharmacodynamic (PD) activity of pamiparib was explored through the evaluation of poly(ADP-ribose [PAR]) formation in peripheral blood mononuclear cells (PBMCs) after pamiparib administration. The schedule for blood sample collection (PK and PBMCs) and additional assessment information for PAR levels in PBMCs and pharmacodynamic activity is presented in the Supplemental Appendix. Antitumor activity was assessed by radiographic imaging (computed tomography or magnetic resonance imaging) during screening, within 28 days of first pamiparib dose, every 6 weeks in the first 12 months and every 9 weeks thereafter.
Tumour response was evaluated by RECIST v1.1. For patients with ovarian cancer, tumour response was assessed per RECIST v1.1 and by Gynecologic Cancer Intergroup (GCIG) CA-125 criteria. Tumour response for patients with prostate cancer was assessed by Prostate Cancer Clinical Trials Working Group 2 (PCWG2) criteria. Objective response rate (ORR) was defined as the proportion of patients achieving a confirmed complete response (CR) or partial response (PR) on study treatment. Blood tumour antigens (e.g., carcinoembryonic antigen for colorectal cancer, CA-125 for ovarian cancer and prostate-specific antigen [PSA] for mCRPC) were assessed during screening, every 6 weeks after the first pamiparib dose in the first 12 months, and every 9 weeks thereafter.
The safety population comprised all patients in the dose-escalation and dose-expansion phases who received at least one dose of pamiparib (Supplementary Table S2). Patients in the safety analysis set for whom valid pamiparib PK parameters were estimated and for whom evaluable PD results were available represented the PK population and the PD population, respectively. The efficacy-evaluable population included patients in the safety analysis set who had at least one evaluable postbaseline tumour assessment or those who discontinued due to clinical disease progression or early death before tumour assessment could be performed. The EOC efficacy-evaluable population was a subset of the overall efficacy-evaluable population that included patients with EOC from both the dose-escalation and dose-expansion phases. Patients in the dose-expansion phase without measurable disease at baseline per RECIST v1.1 were excluded from the efficacy-evaluable population.
Descriptive statistics were used to summarise all study data (see Supplemental Appendix). Progression-free survival (PFS) and event-free rates were estimated using the Kaplan–Meier method along with the corresponding 95% CI. Pharmacokinetic parameters were derived using standard non-compartmental methods with Phoenix WinNonlin Version 6.4 or higher (Pharsight Corp., Mountain View, California).

[1] = BID efficacy-evaluable population (n = 77)
[2] = Total BID dosage group, overall efficacy-evaluable (n = 77)
[3] = dose escalation, 2.5 mg BID (n=4)
[4] = dose escalation, 5.0 mg BID (n=3)
[5] = dose escalation, 10 mg BID (n=3)

`C[C@]12CCCN1CC1=NNC(=O)c3cc(F)cc4[nH]c2c1c34` [pamiparib] was tested, and the “Median duration of response” value (BID dosage group) was 14.9 months, the “Confirmed CRs” value [1] was 5.2% and the “Confirmed PRs” value [1] was 22.1%. For the same compound, the “Confirmed CRs (in words)” value (QD dosage group (n=18)) was “no confirmed CRs”, the “Confirmed ORR” value (QD dosage group (n=18)) was 11.1% and the “Confirmed PRs” value (QD dosage group (n=18)) was 11.1%. The “Event-free rate, 1 year” value (Total (N=95)) was 32.7 (21.73-44.18) % (95% CI), the “Event-free rate, 2 years” value (Total (N=95)) was 11.0 (4.13-21.80) % (95% CI) and the “PFS censored: New anticancer therapy received before event” value (Total (N=95)) was 1 (1.1) n (%). The “PFS censored: No disease progression or death” value (Total (N=95)) was 27 (28.4) n (%), the “PFS censored: No postbaseline assessment” value (Total (N=95)) was 5 (5.3) n (%) and the “PFS censored: ≥2 consecutive missed assessments” value (Total (N=95)) was 2 (2.1) n (%). The “PFS events: Death” value (Total (N=95)) was 10 (10.5) n (%), the “PFS events: Disease progression” value (Total (N=95)) was 50 (52.6) n (%) and the “PFS: Censored” value (Total (N=95)) was 35 (36.8) n (%). For the same compound, the “PFS: Events” value (Total (N=95)) was 60 (63.2) n (%), the “Progression-Free Survival, Median” value (Total (N=95)) was 5.5 (4.14-8.31) months (95% CI) and the “Event-free rate, 1 year” value (Total BID Dosage Group (n=77)) was 34.0 (21.72-46.58) % (95% CI). The “Event-free rate, 2 years” value (Total BID Dosage Group (n=77)) was 12.2 (4.52-24.01) % (95% CI), the “PFS censored: New anticancer therapy received before event” value (Total BID Dosage Group (n=77)) was 1 (1.3) n (%) and the “PFS censored: No disease progression or death” value (Total BID Dosage Group (n=77)) was 20 (26.0) n (%). The “PFS censored: No postbaseline assessment” value (Total BID Dosage Group (n=77)) was 5 (6.5) n (%), the “PFS censored: ≥2 consecutive missed assessments” value (Total BID Dosage Group (n=77)) was 2 (2.6) n (%) and the “PFS events: Death” value (Total BID Dosage Group (n=77)) was 7 (9.1) n (%). For the same compound, the “PFS events: Disease progression” value (Total BID Dosage Group (n=77)) was 42 (54.5) n (%), the “PFS: Censored” value (Total BID Dosage Group (n=77)) was 28 (36.4) n (%) and the “PFS: Events” value (Total BID Dosage Group (n=77)) was 49 (63.6) n (%). For the same compound, the “Progression-Free Survival, Median” value (Total BID Dosage Group (n=77)) was 6.9 (4.14-9.89) months (95% CI), the “Best overall response: Complete response” value [2] was 4 (5.2) n (%) and the “Best overall response: Not assessed” value [2] was 7 (9.1) n (%). The “Best overall response: Not evaluable” value [2] was 1 (1.3) n (%), the “Best overall response: Partial response” value [2] was 17 (22.1) n (%) and the “Best overall response: Progressive disease” value [2] was 11 (14.3) n (%). The “Best overall response: Stable disease” value [2] was 37 (48.1) n (%), the Clinical benefit rate [2] was 39.0 (28.1–50.8) % (95% CI) and the Disease control rate [2] was 75.3 (64.2–84.4) % (95% CI). The Objective response rate [2] was 27.3 (17.7–38.6) % (95% CI), the “Event-free rate, 1 year” value (Total QD Dosage Group (n=18)) was 30.1 (8.73-55.34) % (95% CI) and the “Event-free rate, 2 years” value (Total QD Dosage Group (n=18)) was 0.0 (NE-NE) % (95% CI). For the same compound, the “PFS censored: New anticancer therapy received before event” value (Total QD Dosage Group (n=18)) was 0 (0) n (%), the “PFS censored: No disease progression or death” value (Total QD Dosage Group (n=18)) was 7 (38.9) n (%) and the “PFS censored: No postbaseline assessment” value (Total QD Dosage Group (n=18)) was 0 (0) n (%). The “PFS censored: ≥2 consecutive missed assessments” value (Total QD Dosage Group (n=18)) was 0 (0) n (%), the “PFS events: Death” value (Total QD Dosage Group (n=18)) was 3 (16.7) n (%) and the “PFS events: Disease progression” value (Total QD Dosage Group (n=18)) was 8 (44.4) n (%). The “PFS: Censored” value (Total QD Dosage Group (n=18)) was 7 (38.9) n (%), the “PFS: Events” value (Total QD Dosage Group (n=18)) was 11 (61.1) n (%) and the “Progression-Free Survival, Median” value (Total QD Dosage Group (n=18)) was 4.9 (3.22-12.32) months (95% CI). The “Best overall response: Complete response” value [3] was 0 (0.0) n (%), the “Best overall response: Not assessed” value [3] was 2 (50.0) n (%) and the “Best overall response: Not evaluable” value [3] was 0 (0.0) n (%). For the same compound, the “Best overall response: Partial response” value [3] was 1 (25.0) n (%), the “Best overall response: Progressive disease” value [3] was 1 (25.0) n (%) and the “Best overall response: Stable disease” value [3] was 0 (0.0) n (%). For the same compound, the Clinical benefit rate [3] was 25.0 (0.63-80.59) % (95% CI), the Disease control rate [3] was 25.0 (0.63-80.59) % (95% CI) and the Objective response rate [3] was 25.0 (0.63-80.59) % (95% CI). The “Best overall response: Complete response” value [4] was 0 (0.0) n (%), the “Best overall response: Not assessed” value [4] was 1 (33.3) n (%) and the “Best overall response: Not evaluable” value [4] was 0 (0.0) n (%). For the same compound, the “Best overall response: Partial response” value [4] was 1 (33.3) n (%), the “Best overall response: Progressive disease” value [4] was 0 (0.0) n (%) and the “Best overall response: Stable disease” value [4] was 1 (33.3) n (%). For the same compound, the Clinical benefit rate [4] was 33.3 (0.84-90.57) % (95% CI), the Objective response rate [4] was 33.3 (0.84-90.57) % (95% CI) and the “Best overall response: Complete response” value [5] was 0 (0.0) n (%). The “Best overall response: Not assessed” value [5] was 0 (0.0) n (%).
